Experiment [1] concerns B cell - mediated antigen presentation of HBcAg to experienced T cells. The experiment is described as follows: Inhibition of B cell-mediated antigen presentation of HBcAg to experienced T cells. The experiment is classed as cell-based, Balb/c mice. How it is done: A characterization assay that was used to evaluate the ability of a binding partner to modulate a host immune system response to HBV was conducted as follows. Groups of Balb/c mice were immunized subcutaneously with 20 μg HBcAg. Ten days later, draining lymph nodes were harvested and experienced CD4^+ T cells were purified using anti-CD4 coated magnetic beads (Dynal A S, Oslo, Norway) according to the manufacturers instructions. Naïve B cells were obtained from syngeneic mice, which had not been immunized. These B cells were used as antigen presenting cells in the characterization assay.
The ability of the different mAbs and peptides to block B cell uptake and antigen presentation of HBcAg-peptides to HBcAg-specific CD4+ T cells was then tested in vitro. The cell populations were mixed at a B/T cell ratio of 1:5 and added at a final concentration of approximately 2.5×10^5 to 5.0×10^5 cells per well in a 96 well microplate. Approximately, 20 μg of HBcAg was preincubated with the binding partner. The binding partner mixtures were then added to the cells and the plates were incubated for 26 to 96 hours at 37° C. The effect of the binding partners on T cell proliferation was determined by monitoring [^3H] thymidine incorporation.

The target in experiment [2] is T1, HBeAg (Hepatitis B virus genotype D subtype ayw, UniProt P0C573).
T1 construct: containing nine residues of pre-core and the 150 first residues of HBcAg; made in house
The experiment is described as follows: Redirection of HSV gG2 mAb to HBeAg on solid phase by fusion peptide in solution. The experiment is classed as binding. An excerpt:
(§1) ID. […] The specificity exchangers provided in SEQ. ID. […] Similarly, the specificity exchangers provided in SEQ. ID.

For experiment [3], the target named is T2, serum HBeAg (Hepatitis B virus genotype D subtype ayw, UniProt P0C573).
T2 construct: two HBeAg-transgenic mice; from tissue; host or cells: serum of HBeAg-transgenic mice (from Dr. David R Milich, The Scripps Research Institute)
Briefly: In vivo aggregation of serum HBeAg in HBeAg-transgenic mice. As to conditions: second group of experiments, i.p., final volume 0.5 ml. How it is done:
By using an animal model of HBV infection, the therapeutic efficacy of a specificity exchanger directed to HBV was determined. In a first group of experiments, two HBeAg-transgenic mice (obtained from Dr. David R Milich, The Scripps Research Institute, La Jolla, Calif.) were injected ip. with 500 μl of undiluted hybridoma supernatants. The mice were then bled on day zero, two, six and nine post-injection. Sera were then tested for the change in serum HBeAg levels as determined by EIA (Sorin Biomedica, Saluggia, Italy).

The target in experiment [4] is T3, HBcAg (Hepatitis B virus genotype D subtype ayw, UniProt P03146). As for the experimental part:
To evaluate the efficacy of the specificity exchangers described above, several binding assays using a mAb specific for HSV gG2 were conducted. In one assay, the various specificity exchangers were coated onto microtiterplates and were bound with the mAb specific for HSV gG2. […] ID. […] In another assay, HBcAg was coated onto microtiter plates, specificity exchanger was added (20 μg/well), and the binding of the mAb specific for HSV gG2 was determined. […] ID. […] In another binding assay, HBeAg was coated onto microtiter plates, specificity exchanger was added (20 μg/well), and the binding of the mAb specific for HSV gG2 was determined. […] ID. […] The characterization assays used to evaluate binding partners can also be used and/or modified for the analysis of the specificity exchangers.

The test system of experiment [5] is mAb specific for HSV gG2. Briefly: gG2 mAb binding to fusion peptide on solid phase.
Excerpt: as §1

The target of experiment [6] is T3, HBcAg. How it is done:
Accordingly, the assay was conducted by mixing the antibody to be tested with the appropriate antigen and allowing binding to occur overnight. Subsequently, rabbit complement, which is consumed if the antibody binds the antigen and the complement, was added. To determine the amount of residual complement in the mixture, sheep erythrocytes and an antibody to sheep erythrocytes was added.
This is another data set of the same source.

Where [7] appears, read: fusion peptide in solution 20 μg/well.
[8] abbreviates: specificity exchanger 20 μg/well.

T2 sequence (P0C573 20-183): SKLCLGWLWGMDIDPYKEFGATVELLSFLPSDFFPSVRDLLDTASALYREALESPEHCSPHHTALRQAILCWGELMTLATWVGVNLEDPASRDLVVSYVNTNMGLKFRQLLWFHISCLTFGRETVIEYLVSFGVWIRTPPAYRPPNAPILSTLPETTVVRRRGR
T3 sequence (P03146 whole entry): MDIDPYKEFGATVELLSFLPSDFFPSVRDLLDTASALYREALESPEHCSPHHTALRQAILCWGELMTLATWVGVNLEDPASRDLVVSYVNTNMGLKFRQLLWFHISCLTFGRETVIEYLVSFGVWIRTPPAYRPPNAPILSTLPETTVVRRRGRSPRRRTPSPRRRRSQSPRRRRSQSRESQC
T1 sequence (P0C573 21-179): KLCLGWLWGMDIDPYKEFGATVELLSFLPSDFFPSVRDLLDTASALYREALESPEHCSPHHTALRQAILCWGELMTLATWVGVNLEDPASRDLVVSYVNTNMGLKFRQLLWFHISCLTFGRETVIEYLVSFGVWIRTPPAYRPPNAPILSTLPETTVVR

VKLSCKASGYIFTSHRGGPEE [SEQ. ID. No. 74]: in experiment [1], the “Inhibition of B cell mediated antigen presentation of HBcAg to specific CD4+ T cells (in words)” value is listed as “inhibited B cell mediated antigen presentation”. Also, the “cpm ([3H] thymidine incorporation, T cell proliferation)” value in experiment [1] (T + B cells, 20 μg HBcAg preincubated with inhibitor, positive control 573, background 110) is on record as 345 cpm. The “% inhibition of APC” value in experiment [1] (T + B cells, 20 μg HBcAg, calculated from cpm versus positive control and background proliferation) is reported as 49%. For the same sequence, the “gG2 mAb binding to indicated antigen on solid phase: HBeAg” value in experiment [2] (setting [7]) came to 1.727. Also, the “Binding to immobilized HBeAg allowing binding of HSV gG2 mAb (in words)” value in experiment [2] (setting [8]) is given as “appreciably bound the immobilized HBeAg”. The “Fold change in serum HBeAg levels as determined by EIA in HBeAg-Tg mice” value turned out to be 1 in experiment [3] (day 0 from injection); 1.5 in experiment [3] (day 1 from injection); 2.3 in experiment [3] (day 3 from injection); 2.3 in experiment [3] (day 6 from injection); 3.3 in experiment [3] (day 9 from injection). For the same sequence, the “gG2 mAb binding to indicated antigen on solid phase: HBcAg” value in experiment [4] (setting [7]) was determined as 1.462. In experiment [4] (setting [8]), the “Binding to immobilized HBcAg allowing binding of HSV gG2 mAb (in words)” value is “appreciably bound the immobilized HBcAg”. The “gG2 mAb binding to indicated antigen on solid phase: fusion peptide” value in experiment [5] (no addition of fusion peptide in solution) was 0.884. For the same sequence, the “Binding of mAb specific for HSV gG2 to coated specificity exchanger (in words)” value in experiment [5] (specificity exchanger coated onto microtiterplates) is “appreciably bound the mAb”. Also, the “Complement binding of mAb-specificity exchanger-HBcAg complex (in words)” value in experiment [6] (HSV mAb and specificity exchanger at equimolar ratios) is listed as “able to bind complement”. Further, the “Ability to inhibit binding of mAb 4-2 to HBcAg (in words)” value in experiment [6] (complement binding assay) was “appreciably inhibited the binding of mAb 4-2 to HBcAg”. Besides, in experiment [6] (complement binding assay), the “Ability to inhibit binding of mAb 9C8 to HBcAg (in words)” value was “unable to compete away bound mAb 9C8”.

Source of the values: patent US20060020110A1, “Synthetic peptides that bind to the hepatitis B virus core and E antigens” (priority 2000, published 2006).
